Where “and” joins values, the source holds several entries; their conditions need not be identical. Equal values may be shown once. Calls of active or inactive are those of the source.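 How the source made its calls: active means fitted half-maximal concentration for changing background-corrected GFP signal at or below a set limit; inactive means the rest.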
Assay: TOR pathway reporter MEP2-GFP, concentration series – S. cerevisiae, flow cytometry GFP, MLPCN hits, dose response (AID 2742);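 further: GFP tag reports level of MEP2 protein as a downstream target of TOR signalling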
Conditions: S. cerevisiae MEP2-GFP strain, flow cytometry fluorescence, 3 h; at 33 µM (top of the series)

| Compound | GFP fluorescence (kMESF), higher = increase |
| --- | --- |
| N#C/C(=C\c1ccccn1)c1nc2ccccc2s1 | 58.7 kMESF (inactive) |
| COc1cccc2cc(-c3nc4ccccc4o3)c(=O)oc12 | 1.66 kMESF (inactive) |
| Cc1ccsc1/C=C1\C(=O)NC(=S)N(C)C1=O | 3.66 kMESF (inactive) |
| O=C1NC(=O)N(CCc2ccc(F)cc2)C(=O)/C1=C/c1cccs1 | 4.39 kMESF (inactive) |
| O=C1/C(=C\c2ccc(O)c(O)c2)SC(=S)N1Cc1ccccc1 | -21.1 kMESF (inactive) |
| O=C(CCS(=O)(=O)c1ccccc1)Nc1nc(-c2ccccn2)cs1 | 1.34 kMESF (inactive) |
| Cc1ccc(C(CC(=O)O)NC(=O)c2ccc(S(=O)(=O)N3CC(C)OC(C)C3)cc2)cc1 (stereo not drawn) | 3.08 kMESF (inactive) |
| CCCOc1ccc(C(=O)NNC(=S)NC(=O)c2ccco2)cc1 | 4.58 kMESF (inactive) |
| O=C(Nc1cccc(C(F)(F)F)c1)Oc1ccc(Cl)c2cccnc12 | 2.78 kMESF (inactive) |
| Cc1c(C(=O)Nc2nc(-c3ccccn3)cs2)oc2ccccc12 | 4.49 kMESF (inactive) |
| O=[N+]([O-])c1cc(CN2CCN(c3cccc(C(F)(F)F)c3)CC2)c2cccnc2c1O | 4.44 kMESF (inactive) |
| CCCOc1ccc(C(=O)NNC(=S)NC(=O)CC)cc1 | 4.12 kMESF (inactive) |
| CCOc1ccc(N/N=C(/C#N)C(N)=O)cc1 | 2.43 kMESF (inactive) |
| O=[N+]([O-])c1ccc(-c2cn3nc(-c4ccccc4)c(-c4ccccc4)nc3n2)cc1 | 4.08 kMESF (inactive) |
| O=C(NOC(=O)c1ccccc1)c1ccccc1 | 5.42 kMESF (inactive) |
| COc1cccc2c(=O)c(C(=O)NCc3cccs3)c[nH]c12 | 1.57 kMESF (inactive) |
| O=C(Nc1nnc(-c2ccc3c(c2)CCCC3)o1)c1ccc(Cl)cc1Cl | 3.77 kMESF (inactive) |
| Cc1ccc(C(=O)NNC(=S)NC(=O)COc2ccccc2)cc1 | 6.29 kMESF (inactive) |
| c1ccc(-c2cccc(-c3ccccn3)n2)nc1 | 2.86 kMESF (inactive) |
| CC(C)(C)n1nc(-c2ccc(F)cc2)c2c(N)ncnc21 | 4.89 kMESF (inactive) |
| Cc1cc(C)c(S(=O)(=O)ON2C(=O)c3ccccc3C2=O)cc1C | 3.17 kMESF (inactive) |

| Compound | GFP fluorescence (kMESF), higher = increase |
| --- | --- |
| CCN(CC)c1ccc2cc(-c3nc(-c4ccc(OC)cc4)cs3)c(=O)oc2c1 | 0.72 kMESF (inactive) |
| N/C(Cc1ccc(Cl)cc1)=N\OC(=O)c1ccccc1 | 3.99 kMESF (inactive) |
| CC[C@H](C)/C=C(C)/C=C/C1=CC2=C(Cl)C(=O)[C@@](C)(OC(C)=O)C(=O)C2=CO1 | 0.91 kMESF (inactive) |
| COc1cc(N2C(=O)C=CC2=O)c(OC)cc1Cl | 3.78 kMESF (inactive) |
| CSC1=NS(=O)(=O)c2c(C)nn(C)c2S1 | 4.13 kMESF (inactive) |
| COc1ccc(Cl)cc1C(Nc1cccnc1)c1ccc2cccnc2c1O (stereo not drawn) | 5.91 kMESF (inactive) |
| Cc1ccsc1/C=N/Nc1ncc(Cl)cc1Cl | 5.19 kMESF (inactive) |
| c1ccc(-c2csc(Nc3cccnc3)n2)nc1 | 1.4 kMESF (inactive) |
| Cc1cccc(Nc2nc(-c3ccccn3)cs2)n1 | 5.01 kMESF (inactive) |
| CCOc1cc(C=C2C(=O)c3ccccc3C2=O)ccc1OCC(=O)Nc1ccc(C)cc1 | 1.75 kMESF (inactive) |
| O=C(OCC(=O)N1CCN(C(=O)c2ccco2)CC1)c1cc(-c2ccc(F)cc2)nc2ccccc12 | 4.46 kMESF (inactive) and 3.18 kMESF (inactive) |
| CC(C)Oc1ccc(C(=O)/C=C2/C(=O)Nc3ccccc32)cc1 | 3.75 kMESF (inactive) |
| CCn1c(/C=C/c2ccc([N+](=O)[O-])o2)nc2ccccc2c1=O | 2.26 kMESF (inactive) |
| COc1ccc(N/N=C(\C#N)C(N)=O)cc1 | 1.24 kMESF (inactive) |
| Cc1cc(C2CCCCC2)n(O)c(=O)c1 | 5.36 kMESF (inactive) |
| Cc1ccc(S(=O)(=O)c2ccc([N+](=O)[O-])cn2)cc1 | 5.31 kMESF (inactive) |
| N/C(Cc1ccc(Cl)cc1)=N\OC(=O)c1cccc2ccccc12 | 3.73 kMESF (inactive) |
| COc1cc(/C=C2/C(=O)c3cccc([N+](=O)[O-])c3C2=O)c(Br)cc1O | 3.18 kMESF (inactive) |
| COc1ccccc1N=Cc1nc(-c2ccccc2)oc1OC(C)=O | 4.52 kMESF (inactive) |
| CCN(CC)c1ccc(/C=C2\C(=O)c3ccc(C(=O)O)cc3C2=O)cc1 | 47.5 kMESF (inactive) |
| CCC1(c2ccccc2)ON(c2c(Br)cccc2Br)C1=O (stereo not drawn) | 3.17 kMESF (inactive) |

| Compound | GFP fluorescence (kMESF), higher = increase |
| --- | --- |
| CCN1C(=O)/C(=C\C(=O)c2cccs2)c2cc(Br)ccc21 | 9.04 kMESF (inactive) |
| O=[N+]([O-])c1cc(CN2CCN(c3ccccc3)CC2)c(O)c2ncccc12 | 4.24 kMESF (inactive) |
| COc1ccc(N2CCN(C(=O)c3ccccc3)CC2)c([N+](=O)[O-])c1 | 3.33 kMESF (inactive) |
| CCN(CC)c1ccc2cc(-c3nc4ccccc4[nH]3)c(=O)oc2c1 | 6.39 kMESF (inactive) |
| Cc1ccc(-c2nc(C)sc2CC(=O)Nc2nnc(C)s2)cc1 | 1.85 kMESF (inactive) |
| O=C(COc1ccccc1)NNC(=S)NC(=O)c1ccc(Cl)cc1Cl | 4.07 kMESF (inactive) |
| C=CCOc1ccc(C(=O)/C=C2/C(=O)Nc3ccccc32)cc1 | 3.85 kMESF (inactive) |
| CCOC(=O)CCS(=O)(=O)c1nc(-c2ccccc2)cc(C(F)(F)F)n1 | 7.24 kMESF (inactive) |
| COc1ccc([N+](=O)[O-])c(S(=O)(=O)c2ccccc2)n1 | 3.41 kMESF (inactive) |
| Cc1ccc(S(=O)(=O)ON2C(=O)c3ccccc3C2=O)c(C)c1 | 5.06 kMESF (inactive) |
| COc1ccc(CCNC2=C(Cl)C(=O)N(CCc3ccc(OC)c(OC)c3)C2=O)cc1OC | 2.9 kMESF (inactive) |
| CCOc1ccc(NC2=C(Cl)C(=O)N(Cc3ccccc3)C2=O)cc1 | 3.61 kMESF (inactive) |
| CCOC(=O)CS(=O)(=O)c1nc(-c2ccccc2)cc(C(F)(F)F)n1 | 6.41 kMESF (inactive) |
| O=C(/C=C/c1cccc(Cl)c1)c1nc2ccccc2[nH]1 | 3.3 kMESF (inactive) |
| O=C(Oc1c(Cl)cc(Cl)c2cccnc12)c1ccco1 | 9.81 kMESF (inactive) |
| O=[N+]([O-])c1cc(F)c2cccnc2c1O | 5.96 kMESF (inactive) |
| N#C/C(=C\c1cc(Br)ccc1F)C(=O)NC1CC1 | 6.77 kMESF (inactive) |
| N#Cc1cc([N+](=O)[O-])c(-n2nnc3ccccc32)c([N+](=O)[O-])c1 | 3.54 kMESF (inactive) |
| COc1cc(C=C2C(=O)c3ccccc3C2=O)cc(OC)c1 | 2.05 kMESF (inactive) |
| O=C1C(Cl)=C(NCCc2ccccc2)C(=O)N1CCc1ccccc1 | 2.91 kMESF (inactive) |
| C[C@@H]1C[C@@H]([C@H](O)CC2CC(=O)NC(=O)C2)C(=O)[C@@H](C)C1 | 3.27 kMESF (inactive) |

| Compound | GFP fluorescence (kMESF), higher = increase |
| --- | --- |
| COc1ccc(C2=CC3=C(Br)C(=O)C(C)(O)C(=O)C3=CO2)cc1 (stereo not drawn) | -0.97 kMESF (inactive) |
| COC(=O)/C(=C/c1c[nH]c2ccccc12)[N+](=O)[O-] | 4.87 kMESF (inactive) |
| Cc1cc(/C=C2/SC(=S)N(c3cccc(Cl)c3)C2=O)c(C)n1-c1cccnc1 | 8.22 kMESF (inactive) |
| Cc1ccc2[nH]c(C)c(/C=C/c3cc[n+](C)cc3)c2c1 | 4.54 kMESF (inactive) |
| CCCCOc1ccc(C(=O)NNC(=S)NC(=O)CC)cc1 | 6.17 kMESF (inactive) |
| CN(C)/C=C/C(=O)c1ccc(-c2ccc(Cl)cc2Cl)o1 | 2 kMESF (inactive) |
| O=C1c2sc3nc4ccccc4n3c2C(=O)N1c1ccccc1Cl | 3.06 kMESF (inactive) |
| Nc1nc2ncc(CNc3ccc(C(=O)N[C@@H](CCC(=O)O)C(=O)O)cc3)nc2c(=O)[nH]1 | 1.95 kMESF (inactive) |
| COc1ccccc1NC1=C(Cl)C(=O)N(c2ccccc2)C1=O | 2.07 kMESF (inactive) |
| O=C1CC(c2ccccc2)=NN1c1nc(-c2ccccc2)cs1 | 2.83 kMESF (inactive) |
| COC(CNC(=O)c1ccc2c3c(onc13)-c1ccccc1C2=O)OC | -0.77 kMESF (inactive) |
| O=C(Oc1cccc2cccnc12)c1ccc(Br)o1 | 1.82 kMESF (inactive) |
| COC(=O)CCC(=O)OC1(C)C(=O)C2=COC(c3ccc(OC)cc3)=CC2=C(Br)C1=O (stereo not drawn) | 0.26 kMESF (inactive) |
| Cc1ccc(NC(=O)c2cc(N3C(=O)C=CC3=O)ccc2Cl)cc1C | 5.17 kMESF (inactive) |
| C#CCOCCOCCOCCNc1nc(N2CCN(C(=O)CCCCCCCCCCNC(=O)[C@H](CCCCN)n3cc(CCO)nn3)CC2)nc(N2CCN(C(=O)CCCCCCCCCCNC(=O)[C@H](CCCCN)n3cc(C[C@@H](C)CC)nn3)CC2)n1 | 3.23 kMESF (inactive) |
| O=S1(=O)C=C(Sc2nc3ccccc3s2)c2ccccc21 | 5.18 kMESF (inactive) |
| CCOC(=O)C1=C(O)c2ccccc2C(=O)/C1=C\c1ccc(C)cc1 | -34.5 kMESF (inactive) |
| O=C(O)C1Sc2[nH]c(=O)sc2C2c3cc(Br)ccc3OC(=O)C12 (stereo not drawn) | 4.8 kMESF (inactive) |
| O=C(Oc1c(Cl)cc(Cl)c2cccnc12)c1cccc([N+](=O)[O-])c1 | 4.13 kMESF (inactive) |
| COc1ccccc1-c1nc2s/c(=C\c3cccs3)c(=O)n2n1 | 5.28 kMESF (inactive) |

Reference: PubChem BioAssay AID2742 (NMMLSC, 2010)
